“Also recorded” adds a separate entry of the source.
Legend:
MDR1 expression [1] = assay: Induction of MDR1 expression by agents that increase intracellular Ca2+; format: cell-based, human; settings: H9 cells, 10 hrs
Method: H9 cells were seeded into each well of 6-well plates (10^5 cells/well in 3 mL of RPMI-1640 medium/10% fetal bovine serum/2 mM L-glutamine/100 U/mL penicillin and 100 μg/mL streptomycin). Experimental cultures were treated with either the calcium-specific ionophore A23187 or an inhibitor of Ca^2+ -dependent ATPase, thapsigargin. Cells were incubated with 10 μM A23187 or 10 μg/mL thapsigargin for 10 hrs at 37° C., 5% CO2 in a humidified atmosphere. Negative control cultures were incubated as above without the addition of either A23187 or thapsigargin.
After each incubation was complete, steady-state levels of MDR1- and β2 -microglobulin mRNA (internal standard) were determined by RT-PCR as described above in Example 4. PCR products were then analyzed in 7.5% polyacrylamide gel electrophoresis and autoradiographed. […] The absence of the MDR1-specific band and presence of the β2 -microglobulin specific band was consistent with the results on uninduced H9 cells shown above in Examples 4 and 5 and FIGS. 7A through 7F.

[2] = tested on: MDR1 expression (P-glycoprotein); assay: Induction of MDR1 expression by cytotoxic drugs (dye efflux, UIC2, cDNA-PCR); format: cell-based, human; settings: for maintenance of MDR1 expression after removal of drug: K562 subpopulation
Method: (Commercially-available kits (for example, from GIBCO/BRL, Gaithersburg, Md.) can be advantageously modified for making cDNA using random hexamers.) PCR is then performed using the following primers: […]
(where β2 M represents β2 microglobulin). PCR was performed for β2 M experiments under a regime consisting of 1 cycle comprising denaturation at 94° C. for 3 minutes, primer annealing at 60° C. for 30 seconds, and primer extension at 72° C. for 1 minute, followed by 19 cycles comprising denaturation at 94° C. for 30 seconds, primer annealing at 60° C. for 30 seconds, and primer extension at 72° C. for 1 minute, followed by a final cycle comprising denaturation at 94° C. for 30 seconds, primer annealing at 60° C. for 30 seconds, and primer extension at 72° C. for 5 minutes. MDR1 cDNA sequences were amplified using the identical protocol as for β2 M, but extending the amplification from 19 cycles to 25 cycles. In addition, the cDNA-PCR amplification protocol contained the following modifications: (i) Taq DNA polymerase was added to the PCR mixtures after initial heating of the samples to 94° C. (ii) The yield of the β2 -microglobulin-specific band, obtained after 22-28 cycles of PCR, was used as the primary criterion for equalizing the starting amounts of the cDNA templates in different preparations, in order to account for differential RNA degradation in cells subjected to different types of treatment. ^32 P-labeled PCR products were detected by autoradiography.
In particular PKC is activated by treatment with Ara-C. Therefore, experiments were performed to test whether Ara-C, which is not transported by P-glycoprotein, would have any effect on P-glycoprotein function in K562 leukemia cells.
Also assayed was whether drug-induced MDR1 expression was maintained after cytotoxic drug treatment. […] At different times, MDR1 expression in the surviving cells was analyzed by dye efflux and immunofluorescence labeling with UIC2 (FIG. 3C) or by cDNA-PCR (FIG. 4E).

MRP expression = assay: Inhibition of MRP mRNA expression in H-9 cells (cDNA-PCR); format: cell-based, human; parameters: Inhibition of MRP expression: key to the marks not given beside the values
Method: Cells were plated in 6-well Falcon tissue culture plates at 3,300 cells per well, and incubated in the appropriate concentrations of drugs. Each of the protein kinase inhibitors to be tested were added at their appropriate final concentrations, and the cells then incubated for 10 hours at 37° C. under an atmosphere of 5% CO2.
PCR was performed using the following primers: […]
(where β2 M represents β2 microglobulin). PCR was performed for β2 M experiments under a regime consisting of 1 cycle comprising denaturation at 94° C. for 3 minutes, primer annealing at 60° C. for 30 seconds, and primer extension at 72° C. for 1 minute, followed by 19 cycles comprising denaturation at 94° C. for 30 seconds, primer annealing at 60° C. for 30 seconds, and primer extension at 72° C. for 1 minute, followed by a final cycle comprising denaturation at 94° C. for 30 seconds, primer annealing at 60° C. for 30 seconds, and primer extension at 72° C. for 5 minutes.
H-9 cells were used to analyze the effect of various protein kinase inhibitors on the expression of the multidrug resistance associated protein MRP (Grant et al., ibid.).

MDR1 expression [3] = assay: Inhibition of cytotoxic drug-induced MDR1 expression by inhibitors of NF-κB activation; format: cell-based, human; settings: H9
MDR1 expression [4] = assay: Inhibition of AraC-induced MDR1 expression by phospholipase C inhibitors (RT-PCR); format: cell-based, human; settings: U73122 1 and 10 μM; H9, 25 μM AraC
Method: The inhibitor was added 45 min. prior to the addition of Ara C. Negative control cultures were incubated as above without the addition of either AraC or U73122.
The specificity of phospholipase C-targeted inhibition of MDR1 induction by cytotoxic drugs was determined in a comparative experiment using a known inhibitor of […] phospholipase C (PC-PLC).

MDR1 expression [5] = assay: Inhibition of cytotoxic drug-induced MDR1 expression by protein kinase inhibitors (cDNA-PCR)
Method: (§1) Cells were plated in 6-well Falcon tissue culture plates at 3,300 cells per well, and incubated in the appropriate concentrations of drugs. Each of the protein kinase inhibitors to be tested were added at the appropriate final concentration 45 minutes prior to MDR1 induction by the addition of Ara-C or TPA, with the exception of herbimycin A, which was added 12 hours prior to Ara-C or TPA, and tyrphostins A25 and B46, which were each added 16 hours prior to MDR1 induction by the addition of Ara-C or TPA. Cells were incubated overnight (TPA) or for 10 hours (Ara-C) at 37° C./ 5% CO2 after the addition of the MDR1 inducing agents before harvesting for cDNA-PCR analysis.
In addition, the analysis of certain drugs imposed added requirements. For experiments using calphostin C, cells were incubated under direct white light illumination. For experiments using D,L-threo-sphingosine, the cell culture medium was pre-treated with the appropriate concentration of the drug for one hour at 37° C. with continuous gentle mixing. After this pretreatment, cells were resuspended in media supplemented with drug and incubated for 45 minutes as described above.
To further evaluate the capacity of protein kinase inhibitors to suppress MDR1 induction by cytotoxic drugs and PKC agonists, H-9 human T-cell leukemia cells were used in cDNA-PCR assays to examine induced MDR1 mRNA expression levels in the presence of protein kinase inhibitors.

MDR1 expression [6] = assay: Inhibition of TPA- or DOG-induced MDR1 expression; format: cell-based, human; settings: H-9 cells; 32 μM erbstatin analog
Method: PBL were treated with 1 ng/mL TPA; H9 and K562 cells with 10 ng/mL TPA; KG1a and KG1 cells with 100 ng/mL TPA and the other cell lines with 10 ng/mL TPA.
as §1

CNc1ccc2oc(C[C@H]3O[C@@]4(CC[C@H]3C)O[C@H]([C@H](C)C(=O)c3ccc[nH]3)[C@H](C)C[C@H]4C)nc2c1C(=O)O [A23187]
MDR1 expression (RT-PCR) (MDR1 expression [1]; 10 μM): capable of inducing MDR1 gene expression; also recorded: a clear MDR1-specific band was detected

Nc1ccn([C@@H]2O[C@H](CO)[C@@H](O)[C@@H]2O)c(=O)n1 [Ara-C, 1-β-D-arabinofuranosylcytosine]
MDR1 mRNA expression ([2]; EJ bladder carcinoma, 10 μM Ara-C): activated MDR1 mRNA expression | MDR1 mRNA expression ([2]; H9 T-cell leukemia): a clear MDR1-specific band was detected | subpopulation of cells that effluxed Rh123 ([2]; K562, Ara-C 12-72 hours): 3-17% | MDR1 mRNA expression ([2]; K562, cDNA-PCR): dose-dependent increase in MDR1 mRNA expression | maintenance of MDR1 expression after removal of drug ([2]; drug-free medium): up to 11 weeks | maintenance of MDR1 expression after removal of drug ([2]; treated 3-5 days then drug-free): maintained for a least several weeks | MDR1 mRNA expression ([2]; KB-3-1 epidermoid carcinoma): activated MDR1 mRNA expression | P-glycoprotein expression ([2]; KG1 leukemia cells, 10 μM Ara-C): increased P-glycoprotein expression | MDR1 induction ([2]; human leukemia and solid-tumor derived cell lines, short-term exposure): MDR1 induction, both at the mRNA and at the protein levels, was observed | MRP expression (MRP expression; 25 μM Ara-C, data not shown): slight decrease in MRP expression

Cc1ccc(S(=O)(=O)N[C@@H](Cc2ccccc2)C(=O)CCl)cc1 [N-tosyl-L-phenylalanine chloromethyl ketone]
inhibition of MDR1 induction by Adriamycin (2 μM) (MDR1 expression [3]; inhibitor 25 μM): completely abrogate induction of MDR1 gene expression | inhibition of MDR1 induction by Ara C (25 μM) (MDR1 expression [3]; inhibitor 25 μM): completely abrogate induction of MDR1 gene expression; also recorded: complete suppression of AraC-induced MDR1 expression

COc1ccc2c(c1)CC[C@@H]1[C@@H]2CC[C@]2(C)[C@@H](NCCCCCCN3C(=O)C=CC3=O)CC[C@@H]12 [U73122, 1-(6-((1β-3-methoxyestra-1,3,5(10)-trien-17-yl)amino)hexyl)-1-H-pyrrole-2,5-dione]
inhibition of AraC-induced MDR1 mRNA (MDR1 expression [4]): inhibited the induction of MDR1 mRNA; also recorded: reduced the steady-state levels of MDR1 mRNA

CC(=O)Oc1ccccc1C(=O)O [aspirin, acetylsalicylic acid]
inhibition of MDR1 induction by Adriamycin (2 μM) (MDR1 expression [3]; inhibitor 10 mM): completely abrogate induction of MDR1 gene expression | inhibition of MDR1 induction by Ara C (25 μM) (MDR1 expression [3]; inhibitor 10 mM): completely abrogate induction of MDR1 gene expression; also recorded: complete suppression of AraC-induced MDR1 expression

COc1ccc2c(c[n+](C)c3c4cc5c(cc4ccc23)OCO5)c1OC [chelerythrine]
inhibition of MDR1 induction by cytotoxic drugs (MDR1 expression [5]): capable of inhibiting MDR1 induction by cytotoxic drugs | prevention of MDR1 induction by chemotherapeutic drugs (MDR1 expression [5]; 5 μM chelerythrine): prevent MDR1 induction by chemotherapeutic drugs | inhibition of Ara-C induced MDR1 expression (MDR1 expression [5]; chelerythrine 1 μM and 5 μM, H-9): Progressive dose-dependent inhibition | MRP expression (MRP expression; 1-5 μM): capable of inhibiting MRP expression; also recorded: strongly inhibited

COC(=O)C=Cc1cc(O)ccc1O [methyl-2,5-dihydroxycinnamate]
inhibition of TPA-induced MDR1 expression (MDR1 expression [6]): completely inhibited TPA-induced MDR1 expression; also recorded: inhibit MDR1 expression induced by treatment of sensitive cells with TPA | inhibition of Ara-C induced MDR1 expression (MDR1 expression [5]; 32 μM erbstatin analog, H-9 cells): completely inhibit Ara-C induced MDR1 expression | MRP expression (MRP expression; 32 μM): capable of inhibiting MRP expression; also recorded: strongly inhibited

S=C(S)N1CCCC1 [pyrrolidone dithiocarbamate]
inhibition of MDR1 induction by Ara C (25 μM) (MDR1 expression [3]; inhibitor 20 μM): complete suppression of AraC-induced MDR1 expression | inhibition of MDR1 induction by Adriamycin (2 μM) (MDR1 expression [3]; inhibitor 100 μM): completely abrogate induction of MDR1 gene expression | inhibition of MDR1 induction by Ara C (25 μM) (MDR1 expression [3]; inhibitor 100 μM): completely abrogate induction of MDR1 gene expression

O=C([O-])c1ccccc1O.[Na+] [sodium salicylate]
inhibition of MDR1 induction by Adriamycin (2 μM) (MDR1 expression [3]; inhibitor 20 mM): completely abrogate induction of MDR1 gene expression | inhibition of MDR1 induction by Ara C (25 μM) (MDR1 expression [3]; inhibitor 20 mM): completely abrogate induction of MDR1 gene expression; also recorded: complete suppression of AraC-induced MDR1 expression

C/C=C(/C)C(=O)O[C@H]1C(C)=C2[C@H]([C@@H]1OC(=O)CCCCCCC)[C@@](C)(OC(C)=O)C[C@H](OC(=O)CCC)[C@@]1(O)[C@H]2OC(=O)[C@@]1(C)O [thapsigargin]
MDR1 expression (RT-PCR) (MDR1 expression [1]; 10 μg/mL): capable of inducing MDR1 gene expression; also recorded: a clear MDR1-specific band was detected

neomycin sulfate
inhibition of Ara-C induced MDR1 expression (MDR1 expression [5]; 10 mM neomycin sulfate): inhibit Ara-C induced MDR1 expression; also recorded: completely prevent cytotoxic drug and PKC agonist induction of MDR1 expression | MRP expression (MRP expression; 10 mM): capable of inhibiting MRP expression; also recorded: strongly inhibited | Inhibition of MRP expression (MRP expression; 10 mM, 10 h): ++++

From patent US6171786A, “Methods for preventing multidrug resistance in cancer cells” (priority 1996, dated 2001)
